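Values below derive from 48-hour exposures of cells grown in 96-well plates, with endpoints linearly interpolated between the two concentrations bracketing the appropriate inhibition level. GI50 = concentration required for 50% inhibition of growth.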 Calls of active or inactive are those of the source. Rule as the data show it: active = GI50 up to about 1.1 µM and inactive = higher.
Tests used:
Test in all cases: NCI-60 cell line screen, 48 h
[1] = system: SF-295
[2] = system: RPMI-8226
[3] = system: HOP-62
[4] = system: MDA-MB-231
[5] = system: EKVX
[6] = system: IGROV-1
[7] = system: SK-OV-3
[8] = system: SNB-75
[9] = system: K562
[10] = system: NCI/ADR-RES
[11] = system: A549
[12] = system: RXF 393
[13] = system: 786-0
[14] = system: Hs-578T
[15] = system: NCI-H226
[16] = system: HL-60
[17] = system: TK-10
[18] = system: UACC-257
[19] = system: SK-MEL-5
[20] = system: COLO 205
[21] = system: Malme-3M
[22] = system: MOLT-4
[23] = system: U-251
[24] = system: NCI-H460
[25] = system: CAKI-1
[26] = system: SR
[27] = system: DU-145
[28] = system: NCI-H23
[29] = system: SK-MEL-28
[30] = system: SW-620
[31] = system: SN12C
[32] = system: OVCAR-4
[33] = system: SF-539
[34] = system: KM12
[35] = system: HCT-15
[36] = system: BT-549
[37] = system: HCT-116
[38] = system: PC-3
[39] = system: OVCAR-5
[40] = system: HT-29
[41] = system: MCF7
[42] = system: T47D
[43] = system: MDA-MB-435
[44] = system: LOX IMVI
[45] = system: SNB-19
[46] = system: UO-31
[47] = system: CCRF-CEM
[48] = system: A498
[49] = system: OVCAR-3
[50] = system: NCI-H522
[51] = system: OVCAR-8
[52] = system: HOP-92
[53] = system: M14
[54] = system: SF-268
[55] = system: UACC-62
[56] = system: HCC 2998
[57] = system: ACHN
[58] = system: SK-MEL-2
[59] = system: MDA-N

CCCCCCCCCCCCC1NC(=N)NC2(CCCO2)C1C(=O)OC (stereo not given) was tested, and the GI50 [1] was 9.73 µM (inactive), the GI50 [2] was 2.61 µM (inactive) and the GI50 [3] was 7.18 µM (inactive). For the same molecule, the GI50 [4] was 4.12 µM (inactive), the GI50 [5] was 17.5 µM (inactive) and the GI50 [6] was 2.3 µM (inactive). The GI50 [7] was 10 µM (inactive), the GI50 [8] was 3.61 µM (inactive) and the GI50 [9] was 1.91 µM (inactive). For the same molecule, the GI50 [10] was 17.6 µM (inactive), the GI50 [11] was 13.1 µM (inactive) and the GI50 [12] was 3 µM (inactive). The GI50 [13] was 4.24 µM (inactive), the GI50 [14] was 2.72 µM (inactive) and the GI50 [15] was 14.6 µM (inactive). For the same molecule, the GI50 [16] was 1.53 µM (inactive), the GI50 [17] was 4.79 µM (inactive) and the GI50 [18] was 4.3 µM (inactive). For the same molecule, the GI50 [19] was 5.47 µM (inactive), the GI50 [20] was 3.03 µM (inactive) and the GI50 [21] was 2.23 µM (inactive). For the same molecule, the GI50 [22] was 1.75 µM (inactive), the GI50 [23] was 1.64 µM (inactive) and the GI50 [24] was 2.99 µM (inactive). The GI50 [25] was 12.8 µM (inactive), the GI50 [26] was 2.33 µM (inactive) and the GI50 [27] was 15.3 µM (inactive). The GI50 [28] was 4.39 µM (inactive), the GI50 [29] was 5.52 µM (inactive) and the GI50 [30] was 1.97 µM (inactive). For the same molecule, the GI50 [31] was 8.02 µM (inactive), the GI50 [32] was 5.51 µM (inactive) and the GI50 [33] was 4.9 µM (inactive). For the same molecule, the GI50 [34] was 1.84 µM (inactive), the GI50 [35] was 16.7 µM and the GI50 [36] was 4.3 µM (inactive). The GI50 [37] was 2.47 µM (inactive), the GI50 [38] was 1.67 µM (inactive) and the GI50 [39] was 8.17 µM (inactive). For the same molecule, the GI50 [40] was 1.92 µM (inactive), the GI50 [41] was 2.9 µM (inactive) and the GI50 [42] was 6.4 µM (inactive). For the same molecule, the GI50 [43] was 3.34 µM (inactive), the GI50 [44] was 1.69 µM (inactive) and the GI50 [45] was 2.76 µM (inactive). The GI50 [46] was 15.3 µM (inactive), the GI50 [47] was 2.06 µM (inactive) and the GI50 [48] was 23.3 µM (inactive). The GI50 [49] was 3.52 µM (inactive), the GI50 [50] was 3.45 µM (inactive) and the GI50 [51] was 4.68 µM (inactive). The GI50 [52] was 5.09 µM (inactive), the GI50 [53] was 3.33 µM (inactive) and the GI50 [54] was 3.84 µM (inactive). For the same molecule, the GI50 [55] was 3.89 µM (inactive), the GI50 [56] was 6.37 µM (inactive) and the GI50 [57] was 10.4 µM (inactive). The GI50 [58] was 4.29 µM (inactive).
Oc1cc(/C=C/c2ccccc2)nc2cc3c(cc12)OCO3 was tested, and the GI50 [2] was 0.724 µM (active), the GI50 [3] was 3.47 µM (inactive) and the GI50 [4] was 2.79 µM (inactive). The GI50 [5] was 6.12 µM (inactive), the GI50 [6] was 4.56 µM (inactive) and the GI50 [7] was 4.63 µM (inactive). For the same molecule, the GI50 [8] was 6.93 µM (inactive), the GI50 [10] was 2.04 µM (inactive) and the GI50 [11] was 4.95 µM (inactive). The GI50 [13] was 3.32 µM (inactive), the GI50 [14] was 3.78 µM (inactive) and the GI50 [17] was 10.7 µM (inactive). For the same molecule, the GI50 [18] was 22.1 µM (inactive), the GI50 [20] was 2.38 µM (inactive) and the GI50 [22] was 2.71 µM (inactive). For the same molecule, the GI50 [23] was 2.52 µM (inactive), the GI50 [24] was 3.1 µM (inactive) and the GI50 [27] was 7.06 µM (inactive). For the same molecule, the GI50 [28] was 3.26 µM (inactive), the GI50 [29] was 8.65 µM (inactive) and the GI50 [30] was 6.37 µM (inactive). The GI50 [31] was 6.04 µM (inactive), the GI50 [32] was 14.7 µM (inactive) and the GI50 [33] was 2.08 µM (inactive). The GI50 [34] was 3.99 µM (inactive), the GI50 [35] was 3.01 µM and the GI50 [36] was 5.73 µM (inactive). The GI50 [37] was 3.19 µM (inactive), the GI50 [39] was 3.54 µM (inactive) and the GI50 [40] was 2.2 µM (inactive). For the same molecule, the GI50 [41] was 4.85 µM (inactive), the GI50 [42] was 3.28 µM (inactive) and the GI50 [43] was 1.98 µM (inactive). The GI50 [45] was 3.78 µM (inactive), the GI50 [46] was 6.01 µM (inactive) and the GI50 [48] was 4.2 µM (inactive). For the same molecule, the GI50 [51] was 5.53 µM (inactive), the GI50 [52] was 2.08 µM (inactive) and the GI50 [53] was 5.25 µM (inactive). The GI50 [55] was 3.19 µM (inactive), the GI50 [59] was 2.03 µM (inactive) and the GI50 [56] was 2.9 µM (inactive). The GI50 [57] was 10.9 µM (inactive) and the GI50 [58] was 3.72 µM (inactive).
O=C(CCCNc1nc(-c2ccccc2)cs1)c1cccs1 was tested, and the GI50 [1] was > 100 µM (inactive), the GI50 [2] was > 100 µM (inactive) and the GI50 [3] was > 100 µM (inactive). For the same molecule, the GI50 [4] was > 100 µM (inactive), the GI50 [5] was > 100 µM (inactive) and the GI50 [6] was > 100 µM (inactive). The GI50 [7] was > 100 µM (inactive), the GI50 [8] was > 100 µM (inactive) and the GI50 [9] was > 100 µM (inactive). The GI50 [10] was > 100 µM (inactive), the GI50 [11] was > 100 µM (inactive) and the GI50 [13] was > 100 µM (inactive). For the same molecule, the GI50 [14] was > 100 µM (inactive), the GI50 [15] was > 100 µM (inactive) and the GI50 [17] was > 100 µM (inactive). For the same molecule, the GI50 [18] was > 100 µM (inactive), the GI50 [19] was > 100 µM (inactive) and the GI50 [20] was > 100 µM (inactive). The GI50 [21] was > 100 µM (inactive), the GI50 [22] was > 100 µM (inactive) and the GI50 [23] was > 100 µM (inactive). For the same molecule, the GI50 [24] was > 100 µM (inactive), the GI50 [25] was > 100 µM (inactive) and the GI50 [26] was > 100 µM (inactive). The GI50 [28] was > 100 µM (inactive), the GI50 [29] was > 100 µM (inactive) and the GI50 [30] was > 100 µM (inactive). The GI50 [31] was > 100 µM (inactive), the GI50 [32] was > 100 µM (inactive) and the GI50 [33] was > 100 µM (inactive). For the same molecule, the GI50 [34] was > 100 µM (inactive), the GI50 [35] was > 100 µM and the GI50 [36] was > 100 µM (inactive). The GI50 [37] was > 100 µM (inactive), the GI50 [38] was > 100 µM (inactive) and the GI50 [39] was > 100 µM (inactive). The GI50 [40] was > 100 µM (inactive), the GI50 [41] was > 100 µM (inactive) and the GI50 [42] was > 100 µM (inactive). For the same molecule, the GI50 [43] was > 100 µM (inactive), the GI50 [44] was > 100 µM (inactive) and the GI50 [45] was > 100 µM (inactive). For the same molecule, the GI50 [46] was > 100 µM (inactive), the GI50 [49] was > 100 µM (inactive) and the GI50 [50] was > 100 µM (inactive). The GI50 [51] was > 100 µM (inactive), the GI50 [53] was > 100 µM (inactive) and the GI50 [54] was > 100 µM (inactive). The GI50 [55] was > 100 µM (inactive), the GI50 [59] was > 100 µM (inactive) and the GI50 [56] was > 100 µM (inactive). For the same molecule, the GI50 [57] was > 100 µM (inactive) and the GI50 [58] was > 100 µM (inactive).
